Results taken from ChEMBL document CHEMBL4304832, “Novel Pyrazole-Containing Compounds Active against Mycobacterium tuberculosis” (ACS Med Chem Lett, 2019).
Activity calls are given as the source filed them. No cut-off for these calls is given here.

Tests used:
Assay type in all cases: functional, organism-based
[1] = test system: Mycobacterium tuberculosis; assay: Antitubercular activity against Mycobacterium tuberculosis H37Rv harboring mmpL3 P239H mutant at 20 uM incubated for 4 weeks by resazurin dye based fluorescence assay
[2] = test system: Mycobacterium tuberculosis; assay: Antitubercular activity against Mycobacterium tuberculosis H37Rv harboring lprM V86V mutant at 25 uM incubated for 4 weeks by resazurin dye based fluorescence assay
[3] = test system: Mycobacterium tuberculosis; assay: Antitubercular activity against Mycobacterium tuberculosis H37Rv harboring fadD26 (336 amino acids) insertion mutant at 20 uM incubated for 4 weeks by resazurin dye based fluorescence assay
[4] = test system: Mycobacterium tuberculosis; assay: Antitubercular activity against Mycobacterium tuberculosis H37Rv harboring mmpL3 V240A mutant at 12.5 uM incubated for 4 weeks by resazurin dye based fluorescence assay
[5] = test system: Mycobacterium tuberculosis; assay: Antitubercular activity against Mycobacterium tuberculosis H37Rv harboring ppsB L1476S mutant at 12.5 uM incubated for 4 weeks by resazurin dye based fluorescence assay

Structure (SMILES)	Activity [1]	Activity [2]	Activity [3]	Activity [4]	Activity [5]
CC(C)c1ccc(-c2cc(CN3CCN(c4ccccn4)CC3)nn2C2CCCCC2)cc1	Active	Active	Active		
COC1CCN(Cc2cc(-c3ccc(C(C)C)cc3)n(-c3ccc(F)cc3)n2)CC1				Active	Active
